Data: PubChem BioAssay AID1549 (Sanford-Burnham Center for Chemical Genomics, 2009)
Calls of active or inactive are those of the source. The rule behind the calls is not given here. Where a SMILES comes first, the peptide text is derived from it.

Molecular target: Influenza A virus M2 proton channel (A/TW/4845/1999 H1N1)
Test: NMR binding screen, influenza A virus M2 proton channel, Kd (AID 1549)
Settings: M2 protein

Structure (SMILES) | Kd
CN1CCC(N2CCCC(C(N)=O)C2)CC1 (stereo not drawn) | > 4 mM (inactive)
NC(=O)COc1cccc2cccnc12 | > 4 mM (inactive)
CCOc1cc(S(=O)(=O)N2CCOCC2)ccc1F | > 4 mM (inactive)
O=C(O)C1Cc2ccccc2N1 (stereo not drawn) | > 4 mM (inactive)
C[n+]1cc2c3c(ccc2c2ccc4cc5c(cc4c21)OCO5)OCO3 | > 4 mM (inactive)
C=C1CCC2C(CC2(C)C)C(=C)CC/C1=N/O (stereo not drawn) | > 4 mM (inactive)
CC(=O)N1CCN(S(=O)(=O)c2ccccc2)CC1 | > 4 mM (inactive)
Nc1nc(SCC(=O)c2ccc([N+](=O)[O-])cc2)n[nH]1 | > 4 mM (inactive)
CC(=O)Nc1ccc(C)cc1NC(C)=O | > 4 mM (inactive)
CS(=O)(=O)NN=C1CCCCC1 | > 4 mM (inactive)
COc1ccccc1-c1noc(-c2ccco2)n1 | > 4 mM (inactive)
Nc1ccc(-n2cccc2)cc1 | > 4 mM (inactive)
CC(=O)Nc1nnc(-c2ccccn2)o1 | > 4 mM (inactive)
O=C1CCC([N+](=O)[O-])C(c2ccccc2F)N1 (stereo not drawn) | > 4 mM (inactive)
CCN1C(=O)c2c(C)nc3ccccc3c2C1=O | > 4 mM (inactive)
Cc1cc(C(=O)Nc2sc(C)c(C)c2C#N)no1 | > 4 mM (inactive)
Nc1ncnc(Nc2ccccc2C(F)(F)F)n1 | > 4 mM (inactive)
CSc1ccccc1NC(=O)c1ccc(C)o1 | > 4 mM (inactive)
COc1ccc2c(=O)c(OC)c(-c3ccccc3)oc2c1 | > 4 mM (inactive)
COc1ccc(-c2ccc(=O)n(CC(N)=O)n2)cc1 | > 4 mM (inactive)
CC(C)=CCc1c(O)cc2occ(-c3ccc4c(c3)OCO4)c(=O)c2c1O | > 4 mM (inactive)
CC(=O)Nc1ccc(C(=O)n2nc(C)cc2C)cc1 | > 4 mM (inactive)
CC(=O)O[C@@H]1CC2C(C)(C)[C@H](O)CC[C@]2(C)C2CC[C@@]3(C)[C@H](c4ccoc4)OC(=O)C4OC43[C@@]21C (stereo partly drawn) | > 4 mM (inactive)

Structure (SMILES) | Kd
O=c1[nH]nnc2sc3c(c12)CCCC3 | > 4 mM (inactive)
CN(C)c1n[nH]c(=O)[nH]c1=O | > 4 mM (inactive)
N#CC(O[C@@H]1O[C@H](CO[C@@H]2O[C@H](CO)[C@@H](O)[C@H](O)[C@H]2O)[C@@H](O)[C@H](O)[C@H]1O)c1ccccc1 (stereo partly drawn) | > 4 mM (inactive)
CC(=O)Nc1ccc(N2C(=O)C=CC2=O)cc1C | > 4 mM (inactive)
CC[C@@]1(O)C[C@H](O)c2c(cc3c(c2O)C(=O)c2c(O)ccc(O)c2C3=O)[C@H]1C(=O)OC | > 4 mM (inactive)
O=C1C(=O)N(CN2CCN(CCO)CC2)c2ccccc21 | > 4 mM (inactive)
Nc1ccc(-c2cn3c(n2)SCC3)cc1 | > 4 mM (inactive)
Clc1ccc2c(N3CCNCC3)ccnc2c1 | > 4 mM (inactive)
CC(C)(C)C(=O)N1CCCC1C(=O)O (stereo not drawn) | > 4 mM (inactive)
COc1ccc2c(c1)OC/C(=C/c1ccc(O)c(O)c1)C2=O | > 4 mM (inactive)
CCOCC(=O)NCc1n[nH]c(=O)c2ccccc12 | > 4 mM (inactive)
CN=C1SC(CC(=O)Nc2ccc(O)cc2)C(=O)N1C (stereo not drawn) | > 4 mM (inactive)
NC(=O)NC1C=CS(=O)(=O)C1 (stereo not drawn) | > 4 mM (inactive)
O=C(CCc1ccc(O)cc1)c1c(O)cc(O)cc1O | > 4 mM (inactive)
Cc1nnc(NCCCO)[nH]c1=O | > 4 mM (inactive)
NC(CC(=O)O)c1ccccc1 (stereo not drawn) | > 4 mM (inactive)
N=Cc1c(O)n(-c2cccc(Cl)c2)c(=O)[nH]c1=O | > 4 mM (inactive)
NCc1cccc2c1OCCO2 | > 4 mM (inactive)
O=C(NCc1n[nH]c(=O)c2ccccc12)C1CC1 | > 4 mM (inactive)
COc1ccc2nc(SCC(N)=O)[nH]c2c1 | > 4 mM (inactive)
CC1(C)CN=C(Nc2nc3ccccc3s2)S1 | > 4 mM (inactive)
COc1cc([C@@H]2c3cc4c(cc3[C@H](OC(C)=O)[C@H]3COC(=O)[C@H]23)OCO4)cc(OC)c1OC | > 4 mM (inactive)
O=C(O)C1CC(C2CCCCN2)CN2CCCCC12 (stereo not drawn) | > 4 mM (inactive)

Structure (SMILES) | Kd
NC(=O)CN1C(=O)c2cccc3cccc1c23 | > 4 mM (inactive)
NC(=O)CC(=O)NC12CC3CC(CC(C3)C1)C2 | > 4 mM (inactive)
O=C(Cc1c(F)cccc1Cl)Nc1ccncc1 | > 4 mM (inactive)
Cn1nc(C(=O)NC2CCCCC2)c2ccccc2c1=O | > 4 mM (inactive)
NC(=O)Nc1cccc(C(F)(F)F)c1 | > 4 mM (inactive)
O=C(O)/C=C/C(=O)Nc1ccccc1C(F)(F)F | > 4 mM (inactive)
CN(C)CCCN1CNC(=S)NC1 | > 4 mM (inactive)
CC(=O)c1ccc(NC(=O)c2ocnc2C)cc1 | > 4 mM (inactive)
Nc1ncnc(NCCOCCO)c1[N+](=O)[O-] | > 4 mM (inactive)
Cc1occc1C(=O)NCc1ccccn1 | > 4 mM (inactive)
CC1(C)C(=O)[C@@H]2C[C@@]3(O)C4=CC(=O)O[C@@H](c5ccoc5)[C@]4(C)CCC3C(C)(C2=O)[C@H]1CC(=O)O (stereo partly drawn) | > 4 mM (inactive)
O=C(O)c1cccnc1 | > 4 mM (inactive)
Cc1ccccc1CSc1nncn1N | > 4 mM (inactive)
Nc1ccc2ncsc2c1 | > 4 mM (inactive)
Cc1cc(C(=O)N2CCN(S(C)(=O)=O)CC2)cs1 | > 4 mM (inactive)
Cc1nc2nc(Cc3ccccc3)[nH]n2c(=O)c1Cl | > 4 mM (inactive)
O=C(CC1CCCCC1)N1CCN(c2ccccn2)CC1 | > 4 mM (inactive)
Cc1ccc(-c2nnn(CC(=O)O)n2)cc1 | > 4 mM (inactive)
COc1ccc([C@@H]2CC(=O)c3c(O)cc(O)cc3O2)cc1O | > 4 mM (inactive)
O=S(=O)(Cc1ccccc1Cl)Nc1ccccn1 | > 4 mM (inactive)
NC(=O)c1ccc(-c2csnn2)cc1 | > 4 mM (inactive)
Fc1cc2nccnc2cc1N1CCSCC1 | > 4 mM (inactive)
O=c1[nH]c(NCCO)nnc1Cc1ccccc1 | > 4 mM (inactive)

Structure (SMILES) | Kd
CCOC(=O)C1CN(C)CCN1C (stereo not drawn) | > 4 mM (inactive)
CCOC(=O)CSCC(=O)Nc1nccs1 | > 4 mM (inactive)
Cn1nc(C(=O)Nc2cccnc2)c2ccccc2c1=O | > 4 mM (inactive)
O=C1CC[C@]23/C=C/C(=O)NCCCCNCCCNC(=O)/C=C/c4ccc(c2c4)O[C@@H]3C1 | > 4 mM (inactive)
O=C(CSc1ccc(Cl)cc1)N1CCOCC1 | > 4 mM (inactive)
Cc1cccc(NC(=O)NC(N)=O)c1 | > 4 mM (inactive)
O=C1CS/C(=N/N=C2CCCC2)N1 | > 4 mM (inactive)
CCOC(=O)C1=C(O)CCN(C)C1 | > 4 mM (inactive)
C(=N\c1nccs1)/c1cccnc1 | > 4 mM (inactive)
C[C@H]1O[C@@H](O[C@H]2[C@@H](O)C[C@H](O[C@H]3[C@@H](O)C[C@H](O[C@H]4CC[C@]5(C)C6CC[C@]7(C)[C@@H](C8=CC(=O)OC8)CC[C@]7(O)C6CC[C@@H]5C4)O[C@@H]3C)O[C@@H]2C)C[C@H](O)[C@@H]1O (stereo partly drawn) | > 4 mM (inactive)
O=C(NN1C(=O)C2C3C=CC(C3)C2C1=O)C1CC=CCC1 (stereo not drawn) | > 4 mM (inactive)
Cn1c(=O)c2ccccc2n(Cc2ccccc2F)c1=O | > 4 mM (inactive)
Nc1nc(NCc2ccco2)nn1-c1ccccc1 | > 4 mM (inactive)
CN1C2C[C@H](OC(=O)[C@H](CO)c3ccccc3)C[C@H]1[C@@H](O)C2 | > 4 mM (inactive)
C/C=C(\C)c1nnc(NC(=O)c2ccco2)s1 | > 4 mM (inactive)
Cc1c(N=CN(C)C)c(=O)n(-c2ccccc2)n1C | > 4 mM (inactive)
O=C(O)c1csc(-c2cccnc2)n1 | > 4 mM (inactive)
COc1ccc(-c2c(OC)c3c(OC)c4c(cc3oc2=O)OC(C)(C)C=C4)cc1 | > 4 mM (inactive)
Cc1cc(=O)[nH]c(N)n1 | > 4 mM (inactive)
CC(=O)Oc1c2c(c(CC=C(C)C)c3c1C(=O)C1=C[C@@H]4CC5C(C)(C)OC(C/C=C(\C)C(=O)O)(C4=O)[C@@]15O3)OC(C)(CCC=C(C)C)C=C2 (stereo partly drawn) | > 4 mM (inactive)
CCn1nnc(NC(=O)c2ccccc2Br)n1 | > 4 mM (inactive)
O=c1c(O)cccc2cc(O)c(O)c(O)c12 | > 4 mM (inactive)
[O-][n+]1c2ccccc2[n+]([O-])c2cc(O)ccc21 | > 4 mM (inactive)

Structure (SMILES) | Kd
Cc1nn2c(=O)c(NC(=O)c3ccccc3)cnc2s1 | > 4 mM (inactive)
NC(Cc1c[nH]c2ccccc12)C(=O)O (stereo not drawn) | > 4 mM (inactive)
OCc1nccn1Cc1ccccc1 | > 4 mM (inactive)
C=CCn1c(-c2ccc(O)cc2)n[nH]c1=S | > 4 mM (inactive)
Cc1cc(NC(=O)CSc2nncn2C)no1 | > 4 mM (inactive)
Cc1cc2ncn(S(=O)(=O)N3CCOCC3)c2cc1C | > 4 mM (inactive)
N#Cc1ccccc1CSc1ccccn1 | > 4 mM (inactive)
CNC(=O)Oc1ccc2c(c1)[C@]1(C)CCN(C)[C@@H]1N2C | > 4 mM (inactive)
Cc1cc(C)nc(Nc2n[nH]c(Cc3ccccc3)n2)n1 | > 4 mM (inactive)
CCCCn1c(S(=O)(=O)O)nc2ccccc21 | > 4 mM (inactive)
CC(=O)N[C@@H](CC(=O)O)C(=O)N[C@@H](CCC(=O)O)C(=O)O (Ac-Asp-Glu-OH) | > 4 mM (inactive)
C=C1C2CC[C@@]3(C)[C@H](c4ccoc4)OC(=O)C[C@]13O[C@H]1CC(=O)C(C)(C)[C@H](C(OC(C)=O)C(=O)OC)[C@@]21C (stereo partly drawn) | > 4 mM (inactive)
CC(=O)O[C@H]1CCC2(C)C3=C(CCC2C1(C)C)[C@]1(C)CCC(C(C)CCC=C(C)C)[C@@]1(C)CC3 (stereo partly drawn) | > 4 mM (inactive)
O=C(O)C1CSC(c2cc3ccccc3nc2Cl)N1 (stereo not drawn) | > 4 mM (inactive)
CC(=O)O[C@H]1CC[C@@]2(C)C(=CCC3C2CC[C@@]2(C)C3CC[C@@H]2C(C)CCCC(C)C)C1 (stereo partly drawn) | > 4 mM (inactive)
COc1cccc(C(=O)N2CCOCC2)c1 | > 4 mM (inactive)
CNC(=O)Nc1ccc(C(=O)NC)cc1 | > 4 mM (inactive)
CC(=O)Nc1ccc(C(=O)NC2=NCCS2)cc1 | > 4 mM (inactive)
CN1CCCC1C(=O)O (stereo not drawn) | > 4 mM (inactive)
CCOC(=O)c1ccc2c(c1)nnn2C | > 4 mM (inactive)
CN(C)c1ccc(NC(=O)CC(C(=O)O)N(C)C)cc1 (stereo not drawn) | > 4 mM (inactive)
